What all share (type): in vitro ADME
Data set [1] can be described thus: Bidirectional permeability in Caco-2 cells. The conditions noted are these: human, Caco-2, 5 µM, alone; for efflux ratio at 60 min, 5 µM: read-out: Ratio (B/A), efflux ratio. The procedure:
The Caco-2 cell culture and bidirectional permeability assays used in the study were adapted from previous studies at Takeda. Briefly, Caco-2 cells were obtained from American Type Culture Collection (ATCC) (Manassas, VA, USA) and were cultured in 175 cm^2 tissue culture T-flasks (Corning Life Sciences, Corning, NY, USA). For bidirectional permeability assays, cells were plated onto Costar 24-well culture plates (0.33 cm^2/well, […] (Corning Life Sciences, Corning, NY, USA) by adding 1 × 10^5 cells suspended in 0.2 mL of culture medium (Dulbecco’s modified Eagle’s medium [DMEM] with 0.1 mM non-essential amino acids, 2 mM L-glutamine, 4.5 g/L glucose, and 10% fetal bovine serum [FBS]) to the upper chamber of each well of the 24-well transwell plate. Cell-free culture medium (40 mL) was added to the lower chamber reservoir (Corning Life Sciences, Corning, NY, USA). The transwell plates were then incubated at 37 °C in an atmosphere of 5% CO2 for 25 days to ensure complete enterocyte-like differentiation of the cells, and the culture medium was changed every three to four days during the incubation period. Cell monolayers with transepithelial electrical resistance (TEER) values > 250 ohms × cm^2 were used for the bidirectional permeability assays.
All chemicals and reagents including control compounds were purchased from commercial sources such as Sigma-Aldrich or synthesized in house (pevonedistat and LY335979). Bidirectional transport studies were performed at 37 °C. Before each experiment, the confluent cell monolayers on transwell inserts were washed and equilibrated for 30 min with transport media (Hank’s Balanced Salt Solution [HBSS] containing 25 mM 4-(2-hydroxyethyl)-1-piperazineethanesulfonic acid [HEPES] and 10 mM glucose, pH 7.4 or 6.5). The bidirectional permeability of 5 µM of the cyclohexane derivative was assessed alone or in the presence of 5 µM LY335979, 5 µM K0143, or 10 µM Elacridar to inhibit P-gp, BCRP, and both efflux transporters, respectively. Additionally, the bi-directional permeability of 5 µM solutions of nadolol (low permeable control marker), minoxidil (high permeable marker), propranolol (high permeable marker), and pevonedistat (efflux transporter control) was also assessed. The experiment was initiated by adding a solution containing the test compounds and LY335979 to either the apical (for apical-to-basolateral [A-to-B] transport) or basolateral (for basolateral-to-apical [B-to-A] transport) compartment. Lucifer yellow (50 µM) was added to each donor chamber in the experiment to serve as a paracellular transport control and to monitor cell monolayer integrity. The apical volume was 0.2 mL and the basolateral volume was 1.0 mL. Bovine serum albumin (BSA, Sigma Aldrich) (5%) was added to the transport media on the receiver side to prevent non-specific binding of the test compound to the polystyrene well. After the addition of test compound into the donor side, […] of the receiving solution were withdrawn from the receiver side at 30 and 60 min. A […] of fresh transport media was immediately added to the receiver side at 30 and 60 min. The samples were placed into 96-well black plates (PerkinElmer Life Sciences, Boston, MA, USA) for fluorescence measurement (excitation at 450 nm and emission at 535 nm). After this measurement, the amounts of cyclohexane derivative and control compounds in each sample were quantified with liquid chromatography–mass spectrometry (LC–MS). The time course of drug transported across cell monolayers was analyzed to determine the time and rate of steady-state flux. The transport rate (total amount of drug present in the receiver chamber per unit time), Papp, and efflux ratio were calculated as described in Equations (4) and (5). […]
In general terms: Caco-2 monolayers are a common model of the intestinal barrier.

The nature of data set [2]: Plasma stability study, human. The conditions noted are these: pooled plasma, 37 °C, read-out: Plasma Half-Life, t1/2. The method, then: (§1) Briefly, plasma stability was assessed by incubating compounds in the presence of human (pooled) and mouse (pooled) plasma (Bioreclamation, Westbury, NY, USA). All chemicals and reagents including control compounds were purchased from commercial sources such as Sigma-Aldrich or Toronto Research Chemicals. Plasma incubations were conducted by placing plasma (95 μL) in a 96-well microtiter plate and warming to 37 °C for 5 min. The reaction was initiated with the addition of the test article (5 μL of 20 μM), totaling 100 μL in incubation volume. At 0, 15, 30, 60, and 120 min time points, the reactions were terminated with the addition of acetonitrile-containing carbutamide (as an internal standard). The terminated samples were then centrifuged at 2 °C to pellet the protein, and the supernatant was injected onto an LC–MS. The test article was monitored for loss over time and the t1/2 was determined.

Data set [3] can be described thus: Plasma stability study, mouse. The conditions noted are these: mouse, pooled plasma, 37 °C, read-out: Plasma Half-Life, t1/2. The method, then:
as §1

Data set [4] is described as follows: In vitro liver microsomal metabolism study, human. The conditions noted are these: human liver microsomes. The method, then:
(§2) Metabolic stability was assessed by incubating compounds in the presence of human, rat, and mouse liver microsomal fractions (Xenotech, Kansas City, KS, USA). All chemicals and reagents, including control compounds, were purchased from commercial sources such as Sigma-Aldrich (St. Louis, MO, USA) or Toronto Research Chemicals (North York, ON, Canada). Liver microsomal incubations were conducted with 100 mM phosphate buffer, 0.5 mg/mL of liver microsomal protein, 2 mM NADPH, 2.5 mM UDPGA, 3 mM MgCl2, alamethicin, and 1 μM test article for a total incubation volume of 80 µL. All reagents except the liver microsomes were mixed together and aliquoted (60 μL) into 96-well plates. The reaction was initiated by adding the microsomes (20 μL). At 0, 3, 7, 12, 20, and 30 min time points, the reactions were terminated with the addition of acetonitrile-containing carbutamide (as an internal standard). The terminated samples were then centrifuged at 2 °C to pellet the protein and the supernatant was injected onto an LC–MS. The test article was monitored for loss over time and the t1/2 was determined. The calculated t1/2 was then used as described below to determine the Eh (hepatic extraction ratio) for both human and rat.
(§3) The intrinsic clearance (CLint), hepatic clearance (CLh), and hepatic extraction ratio (Eh) were calculated using the equations below. CLint = (0.693/t1/2 in vitro) × (mL incubation volume/mg microsomal protein) × (X mg of microsomal protein/gram of liver) × (Y g of liver/kg of body weight)(1) CLh = Q × CLint/Q + CLint(2) Eh = CLh/Q(3) where: • CLint = intrinsic clearance (calculated from microsomal incubations) • X = 40 for human, 41.5 for rat and 45 for mouse • Y = 21.4 for human, 40 for rat and 50 for mouse • t1/2 = half-life • CLh = hepatic clearance • Q = liver blood flow rate = 1.24 L/h/kg for human, 4.8 L/h/kg for rat, and 5.4 L/h/kg for mouse • Eh = hepatic extraction ratio • CLh = hepatic clearance
A general note: Microsomes from liver hold many membrane-bound enzymes, among them those of drug oxidation.

The nature of data set [5]: In vitro liver microsomal metabolism study, rat. Conditions: rat liver microsomes. The procedure: as §2, §3
Data set [6] is described as follows: In vitro liver microsomal metabolism study, mouse. Conditions: mouse liver microsomes. The method, then: as §2, §3

The source of these data is article PMC10609273, “Radiosynthesis and Early Evaluation of a Positron Emission Tomography Imaging Probe [^18F]AGAL Targeting Alpha-Galactosidase A Enzyme for Fabry Disease” (Molecules, 2023).

In general, Papp A→B refers to how fast a substance crosses the layer from the apical side. A higher Papp A→B goes with fast passage. A word on the Papp B→A: it is how fast a substance crosses the layer from the basolateral side. As for `NS(=O)(=O)OC[C@@H]1C[C@@H](n2ccc3c(N[C@H]4CCc5ccccc54)ncnc32)C[C@@H]1O` [Pevonedistat, reference compound], in data set [1], the apparent permeability from apical to basolateral (Papp A→B) at 60 min, 5 µM amounted to 3.37 ×10⁻⁶ cm/s; the basolateral-to-apical permeability (Papp B→A) at 60 min, 5 µM came to 63.4 ×10⁻⁶ cm/s; the efflux ratio at 60 min, 5 µM came out at 18.8.
`CC(C)[N+](C)(CCOC(=O)C1c2ccccc2Oc2ccccc21)C(C)C` [Propantheline, reference compound]: the half-life at 1 µM in data set [2] turned out to be 7.22 min; in data set [3], 26 min.
As usually defined, the CLint scaled is the capacity of the preparation to metabolise the compound, expressed as a volume cleared per time. With `COc1ccc2c(c1)[C@]13CCCC[C@@H]1[C@H](C2)N(C)CC3` [Dextromethorphan, reference compound], the CLh in data set [4] was determined as 14 mL/min/kg; in data set [5] it was 71.2 mL/min/kg; in data set [6], 77.3 mL/min/kg. Moreover, the “Eh (hepatic extraction ratio)” value in data set [4] was 0.676; in data set [5] it was 0.889; in data set [6], 0.860. The intrinsic metabolic clearance (CLint scaled) at 1 µM in data set [4] (1 μM, NADPH + UDPGA) was 43.2 mL/min/kg; in data set [5] (1 μM, NADPH + UDPGA) it was 642 mL/min/kg; in data set [6] (1 μM, NADPH + UDPGA), 552 mL/min/kg.
On to `Nc1cc(N2CCCCC2)nc(N)[n+]1[O-]` [Minoxidil, reference compound], for which, in data set [1], the apparent permeability from apical to basolateral (Papp A→B) at 60 min, 5 µM came to 7.81 ×10⁻⁶ cm/s; the apparent permeability from basolateral to apical (Papp B→A) at 60 min, 5 µM was determined as 9.78 ×10⁻⁶ cm/s; the efflux ratio at 60 min, 5 µM was 1.3.
Take `CC(C)(C)NCC(O)COc1cccc2c1CC(O)C(O)C2` (stereo not shown) [Nadolol, reference compound]: in data set [1], the apical-to-basolateral permeability (Papp A→B) at 60 min, 5 µM amounted to 0.36 ×10⁻⁶ cm/s; the apparent permeability from basolateral to apical (Papp B→A) at 60 min, 5 µM is 1.45 ×10⁻⁶ cm/s; the efflux ratio at 60 min, 5 µM is 4.1.
For `CC(C)NCC(O)COc1cccc2ccccc12` (stereo not shown) [Propranolol, reference compound], in data set [1], the apparent permeability from apical to basolateral (Papp A→B) at 60 min, 5 µM came to 43.7 ×10⁻⁶ cm/s; the Papp B→A at 60 min, 5 µM amounted to 44.4 ×10⁻⁶ cm/s; the efflux ratio at 60 min, 5 µM is 1.
With `CCOC(=O)[C@H](CCc1ccccc1)N[C@@H](C)C(=O)N1CCC[C@H]1C(=O)O` [Enalapril, reference compound], the half-life at 1 µM in data set [2] is 283 min; in data set [3], 30.6 min.
